In one assay the target is T1, PD-1/PD-L1 (Homo sapiens, UniProt Q9NZQ7).
T1 construct: purchased Cisbio 63ADK000CPDPEB
Put plainly: PD-1/PD-L1 binding assay (HTRF, PPI-HTRF). The settings on record: HTRF PD1/PD-L1 binding assay kit; 10 nM Tag1-PD-L1; 25° C. Summed up:
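HTRF binding assay: compound was mixed with tagged proteins at final concentrations of 10 nM Tag1-PD-L1 and 2 nM PD1 for 15 min at 25 °C. Anti-Tag1-Eu³⁺ and anti-Tag2-XL665 antibodies were then added for 16 h at 25 °C. IC50 was derived from the 665/620 nm emission ratio.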

The subject of assay [1] is Jurkat T(PD1 Luc-)/CHOK1(PDL-1). As to the kind of experiment: Jurkat T(PD1 Luc-)/CHOK1(PDL-1) cell experiment (luciferase reporter). The settings on record: CHO/PD-L1-OKT3 cells co-cultured with Jurkat/PD1-NFAT-Luc cells for 6 hours; Bio-Glo luciferase signal. The format is cell-based. Summed up: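 CHO/PD-L1-OKT3 cells plated 24 h at 37 °C, then compound in DMSO (1 uM final) added together with Jurkat/PD1-NFAT-Luc cells and co-cultured 6 h. Luciferase signal read with Bio-Glo; EC50 by non-linear regression.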

Each structure is given as a SMILES string. Where only a bound is given, the exact number is not on record here.

From US20210386721A1, “SUBSTITUTED PHENYLPROPENYL PYRIDINE DERIVATIVES, THEIR PREPARATION AND PHARMACEUTICAL APPLICATIONS” (SHANGHAI HAIYAN PHARMACEUTICAL TECHNOLOGY CO., LTD., priority 2019, published 2021) come the findings set out here.

T1 sequence (Q9NZQ7 19-238 limits assumed): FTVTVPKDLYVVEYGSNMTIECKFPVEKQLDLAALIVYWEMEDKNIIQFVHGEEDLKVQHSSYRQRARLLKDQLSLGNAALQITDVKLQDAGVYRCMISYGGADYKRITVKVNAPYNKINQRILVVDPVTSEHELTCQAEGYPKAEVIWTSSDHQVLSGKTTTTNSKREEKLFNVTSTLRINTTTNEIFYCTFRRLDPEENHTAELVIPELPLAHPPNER

`COc1cc(/C=C/c2cccc(-c3cccc(NC(=O)c4nc5c(n4C)CCN(C)C5)c3Cl)c2C)c(C(F)(F)F)cc1CN1CCCC[C@H]1C(=O)O` [Z-108, (S,E)-1-(4-(2-(2′-chloro-3′-(1,5-dimethyl-4,5,6,7-tetrahydro-1H-imidazo[4,5-c]pyridine-2-carboxamido)-2-methyl-[1,1′-biphenyl]-3-yl)vinyl)-2-methoxy-5-(trifluoromethyl)benzyl)piperidine-2-carboxylic Acid]: on PD-1/PD-L1, the IC50 (in general, the concentration at which inhibition is half-maximal) was determined as 2 nM. The response in assay [1] was half-maximal at 57 nM (EC50).
At PD-1/PD-L1, `COc1cc(/C=C/c2cccc(-c3cccc(NC(=O)c4ccc(CNCCS(C)(=N)=O)cn4)c3C)c2C)c(C(F)(F)F)cc1CN1CC[C@@H](C(=O)O)C1` (stereo partly drawn) [Z-109, (3R)-1-(4-((E)-2-(2,2′-dimethyl-3′-(5-(((2-(S-methylsulfonimidoyl)ethyl)amino)methyl)picolinamido)-[1,1′-biphenyl]-3-yl)vinyl)-2-methoxy-5-(trifluoromethyl)benzyl)pyrrolidine-3-carboxylic Acid] displayed an IC50 of 1 nM. Further, the EC50 (usually the midpoint of the concentration-response curve) in assay [1] was 121 nM.
In turn, `COc1cc(/C=C/c2cccc(-c3cccc(NC(=O)c4ccc(CNC[C@@H]5CCC(=O)N5)cn4)c3C)c2C)c(C(F)(F)F)cc1CN1CC[C@@H](C(=O)O)C1` [Z-110, (R)-1-(4-((E)-2-(2,2′-dimethyl-3′-(5-(((((S)-5-oxopyrrolidin-2-yl)methyl)amino)methyl)picolinamido)-[1,1′-biphenyl]-3-yl)vinyl)-2-methoxy-5-(trifluoromethyl)benzyl)pyrrolidine-3-carboxylic Acid] came in with an IC50 at PD-1/PD-L1 of 1 nM. In assay [1], this compound registered a concentration for a half-maximal effect (EC50) of 153 nM.
`COc1cc(C(=O)Nc2cccc(-c3cccc(/C=C/c4cc(OC)c(CN5CCC[C@H]5C(=O)O)cc4C(F)(F)F)c3C)c2C)ncc1CNCCO` [Z-112] had an IC50 on PD-1/PD-L1 of 1 nM. Further, a half-maximal response in assay [1] (EC50) required 25 nM.
As for `COc1cc(/C=C/c2cccc(-c3cccc(NC(=O)c4nc5c(n4C)CCN(CCO)C5)c3Cl)c2C)c(C(F)(F)F)cc1CN1CCCC[C@H]1C(=O)O` [Z-113, (S, E)-1-(4-(2-(2′-chloro-3′-(5-(2-hydroxyethyl)-1-methyl-4,5,6,7-tetrahydro-1H-imidazo [4,5-c]pyridine-2-carboxamido)-2-methyl-[1,1′-biphenyl]-3-yl)vinyl)-2-methoxy-5-(trifluoromethyl)benzyl) piperidine-2-carboxylic Acid], at PD-1/PD-L1, the IC50 turned out to be 1 nM. In assay [1], the response was half-maximal at 66 nM (EC50).
The like results for `COc1cc(C(=O)Nc2cccc(-c3cccc(/C=C/c4cc(OC)c(CN5CC[C@@H](C(=O)O)C5)cc4C(F)(F)F)c3C)c2C)ncc1CN1CC(CO)C1` [Z-114, (R,E)-1-(4-(2-(3′-(5-((3-(hydroxymethyl)azetidin-1-yl)methyl)-4-methoxypicolinamido)-2,2′-dimethyl-[1,1′-biphenyl]-3-yl)vinyl)-2-methoxy-5-(trifluoromethyl)benzyl)pyrrolidine-3-carboxylic Acid] were, in that order, 1 nM and 54 nM.
With `COc1cc(C(=O)Nc2cccc(-c3cccc(/C=C/c4cc(OC)c(CN5CCC[C@H]5C(=O)O)cc4C(F)(F)F)c3C)c2C)ncc1CN1CC[C@@H](O)C1` [Z-115], at PD-1/PD-L1, the IC50 worked out at 1 nM. Also, the EC50 in assay [1] stood at 31 nM.
Turning to `COc1cc(C(=O)Nc2cccc(-c3cccc(/C=C/c4cc(OC)c(CN5CC[C@@H](C(=O)O)C5)cc4C(F)(F)F)c3C)c2C)ncc1CN1CC[C@@H](O)C1` [Z-117], the IC50 on PD-1/PD-L1 was found to be 1 nM. In assay [1], a half-maximal effect (EC50) was put at 13 nM.
As to `COc1cc(/C=C/c2cccc(-c3cccc(NC(=O)c4cc(OC)c(CN5CC[C@@H](O)C5)cn4)c3C)c2C)c(C(F)(F)F)cc1CNC[C@@H](O)CC(=O)O` [Z-118, (S)-3-hydroxy-4-((4-((E)-2-(3′-(5-(((R)-3-hydroxypyrrolidin-1-yl)methyl)-4-methoxypicolinamido)-2,2′-dimethyl-[1,1′-biphenyl]-3-yl)vinyl)-2-methoxy-5-(trifluoromethyl)benzyl)amino) butanoic Acid], at PD-1/PD-L1, the IC50 was 1 nM. Further, the EC50 in assay [1] is 13 nM.
Turning to `COc1cc(/C=C/c2cccc(-c3cccc(NC(=O)c4cc(CN5CC[C@@H](O)C5)ccn4)c3C)c2C)c(C(F)(F)F)cc1CN1CC[C@@H](C(=O)O)C1` [Z-120], the IC50 on PD-1/PD-L1 came to 1 nM. Moreover, the EC50 in assay [1] was determined as 15 nM.
In turn, `COc1cc(C(=O)Nc2cccc(-c3cccc(/C=C/c4cc(OC)c(CN5CCC(C)(C(=O)O)C5)cc4C(F)(F)F)c3C)c2C)ncc1CN1CC[C@@H](O)C1` (stereo partly drawn) [Z-121] yielded an IC50 at PD-1/PD-L1 of 1 nM. The compound further had an EC50 in assay [1] of 31 nM.
The like results for `COc1cc(/C=C/c2cccc(-c3cccc(NC(=O)c4cc(OC)c(CN5CC[C@@H](O)C5)cn4)c3C)c2C)c(C(F)(F)F)cc1CN1CCC(C(=O)O)CC1` [Z-122] were, in that order, 1 nM and 18 nM.
Take `COc1cc(C(=O)Nc2cccc(-c3cccc(/C=C/c4cc(CN5CC[C@@H](C(=O)O)C5)ccc4C(F)(F)F)c3C)c2C)ncc1CN1CC[C@@H](O)C1` [Z-124]: at PD-1/PD-L1, the IC50 is 1 nM. For the same compound, the EC50 in assay [1] was determined as 109 nM.
At PD-1/PD-L1, `COC(=O)C[C@H](O)CNCc1cc(C(F)(F)F)c(/C=C/c2cccc(-c3cccc(NC(=O)c4cc(OC)c(CN5CC[C@@H](O)C5)cn4)c3C)c2C)cc1OC` [Z-128] had an IC50 of less than 1 nM. For the same compound, it took 39 nM to reach a half-maximal effect in assay [1] (EC50).
Turning to `COc1cc(/C=C/c2cccc(-c3cccc(NC(=O)c4nc5c(n4C)CCN([C@H]4CC[C@@H](O)CC4)C5)c3C)c2C)c(C(F)(F)F)cc1CN1CC[C@@H](C(=O)O)C1` [Z-131, (R)-1-(4-((E)-2-(3′-(5-((1s,4s)-4-hydroxycyclohexyl)-1-methyl-4,5,6,7-tetrahydro-1H-imidazo[4,5-c]pyridine-2-carboxamido)-2,2′-dimethyl-[1,1′-biphenyl]-3-yl)vinyl)-2-methoxy-5-(trifluoromethyl)benzyl)pyrrolidine-3-carboxylic Acid], on PD-1/PD-L1, the IC50 is 1 nM. The EC50 in assay [1] amounted to 124 nM.
As for `COc1cc(/C=C/c2cccc(-c3cccc(NC(=O)c4nc5c(n4C)CCN([C@H]4CC[C@H](O)CC4)C5)c3C)c2C)c(C(F)(F)F)cc1CN1CC[C@@H](C(=O)O)C1` [Z-132, (R)-1-(4-((E)-2-(3′-(5-((1r,4r)-4-hydroxycyclohexyl)-1-methyl-4,5,6,7-tetrahydro-1H-imidazo[4,5-c]pyridine-2-carboxamido)-2,2′-dimethyl-[1,1′-biphenyl]-3-yl)vinyl)-2-methoxy-5-(trifluoromethyl)benzyl)pyrrolidine-3-carboxylic Acid], the IC50 on PD-1/PD-L1 is 1 nM. The compound further had an EC50 in assay [1] of 168 nM.
On to `COC(=O)[C@@H]1CCN(Cc2cc(C(F)(F)F)c(/C=C/c3cccc(-c4cccc(NC(=O)c5cc(OC)c(CN6CC[C@@H](O)C6)cn5)c4C)c3C)cc2OC)C1` [Z-133], for which, on PD-1/PD-L1, the IC50 is 2 nM. In addition, a half-maximal effect in assay [1] (EC50) was put at 31 nM.
On to `COc1cc(/C=C/c2cccc(-c3cccc(NC(=O)c4nc5c(n4C)CCN(C(C)C)C5)c3C)c2C)c(C(F)(F)F)cc1CN1CC[C@@H](C(=O)O)C1` [Z-134, (R,E)-1-(4-(2-(3′-(5-isopropyl-1-methyl-4,5,6,7-tetrahydro-1H-imidazo[4,5-c]pyridine-2-carboxamido)-2,2′-dimethyl-[1,1′-biphenyl]-3-yl)vinyl)-2-methoxy-5-(trifluoromethyl)benzyl)pyrrolidine-3-carboxylic Acid], for which the IC50 at PD-1/PD-L1 stood at 1 nM. For the same compound, the EC50 in assay [1] stood at 91 nM.
For the compound `COc1cc(C(=O)Nc2cccc(-c3cccc(/C=C/c4cc(OC)c(CN5CC[C@@H](O)C5)cc4C(F)(F)F)c3C)c2C)ncc1CN1CC[C@@H](O)C1` [Z-135], the IC50 at PD-1/PD-L1 is no more than 1 nM. Besides, in assay [1], the EC50 was found to be 44 nM.
Compound `COc1cc(C(=O)Nc2cccc(-c3cccc(/C=C/c4cc(OC)c(CN5CC[C@@H](C(=O)O)C5)cc4C(F)(F)F)c3Cl)c2C)ncc1CN1CC[C@@H](O)C1` [Z-140] displayed a 50% inhibitory concentration (IC50) at PD-1/PD-L1 of no more than 1 nM. The same compound yielded an EC50 in assay [1] of 7 nM.
The corresponding values for `CNc1cc(C(=O)Nc2cccc(-c3cccc(/C=C/c4cc(OC)c(CN5CCC(C(=O)O)C5)cc4C(F)(F)F)c3C)c2C)ncc1CN1CC[C@@H](O)C1` (stereo partly drawn) [Z-141] are no more than 1 nM and 74 nM.
